According to paper PMC6874530, “Structural analysis identifies an escape route from the adverse lipogenic effects of liver X receptor ligands” (Communications Biology, 2019):
Where “and” joins values, the source holds several entries; their conditions need not be identical. Equal entries are not always repeated. Where two headings read alike, the source gives them in different places.

What was measured:
plasma triglycerides = test: plasma TG induction in C57BL/6 mice vs plasma compound concentration (log-linear model); format: in vivo, mouse; conditions: for TG induction in plasma m (scaling factor) / TG induction in plasma C2, drug concentration corresponding to a twofold increase in TG levels: (% RSE); for TG induction in plasma Attributed class: mouse, in vivo
Description: Male C57BL/6JOlaHsd mice were retrieved from Harlan Laboratories (Horst, The Netherlands) around 7 weeks of age. […] Mice were given ad libitum access to water and standard rodent chow during the studies.
Compounds were given daily by oral gavage, 5 ml kg^−1, at doses ranging from 0.1 to 100 μmol kg^−1 of body weight for 4 days. Animals were terminated 3 h after the last dose.
At termination, the whole-blood volume was drawn from isoflurane-anesthetized mice via an incision in the carotid artery into EDTA blood tubes (S-Monovette®, EDTA KE/1.3 mL, Sarstedt, Nümbrecht, Germany or BD Microtainers®, Benton, Dickinson and Company, Franklin Lakes, New Jersey, USA). Blood samples were placed on ice and centrifuged within an hour (15 min, 2500 × g, 4 °C or 5 min, 16000 × g, 4 °C). The plasma was then dispensed in separate tubes and kept at −80 °C for later analysis of compound concentration and TG levels. For the analysis of intestinal Abca1 transcript levels, a 3–5-mm long segment of the duodenum was excised and cleared from any gut contents. Tissues were instantly snap frozen in liquid nitrogen and stored at −80 °C.
Plasma triglyceride levels were analyzed by using the Triglycerides/Glycerol Blanked reagent kit (Roche Diagnostics GMBH, Mannheim, Germany). Samples were measured on an ABX Pentra 400 instrument (Horiba Medical, Irvine, California, USA) or Cobas Mira plus instrument (Roche Diagnostics Corporation, Indianapolis, USA). […] Absorbance was measured by using a Tecan Infinite M200 plate reader (Tecan Austria GmbH, Salzburg, Austria).
About 25 µL of plasma was precipitated with 150 µL of cold acetonitrile containing 0.2% formic acid. […] Sample analysis was performed by using a reversed-phase high-pressure liquid chromatography system coupled to a Quattro Ultima triple-quadrupole mass spectrometer (Waters, UK). A rapid 2-min 4–90% (vol/vol) acetonitrile (containing 0.2% formic acid) gradient was used for chromatographic separation.
To rank the compounds, the drug concentration (C2) needed to generate a twofold increase in plasma TG was estimated by rearranging Eq. (2):3 C2=exp^2fold−BL−1/m^1/γ

LXRα LBD [1] = target: T1, LXRα LBD (Homo sapiens, UniProt Q13133); test: biochemical
T1 sequence (Q13133 200-447): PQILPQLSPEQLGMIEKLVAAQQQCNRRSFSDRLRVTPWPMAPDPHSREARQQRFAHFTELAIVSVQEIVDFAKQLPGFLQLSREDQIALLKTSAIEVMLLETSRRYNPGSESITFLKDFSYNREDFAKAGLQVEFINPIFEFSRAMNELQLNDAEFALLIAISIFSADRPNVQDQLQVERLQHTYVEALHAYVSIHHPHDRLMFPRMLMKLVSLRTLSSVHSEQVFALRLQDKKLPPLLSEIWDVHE
Description: The compounds were run in triplicate (binding assay) or in quadruplicate (transactivation assay). Standard deviations are indicated for individual experiments run more than once.

LXRβ LBD = target: T2, LXRβ LBD (Homo sapiens, UniProt P55055); test: differential HDX-MS of LXRβ LBD (apo vs ligand-bound); parameters: human his-tagged LXRβ LBD (216-461); His tag; made in house; host or cells: Escherichia coli BL21(DE3); conditions: after 30 s of deuterium exchange
T2 sequence (P55055 215-460 limits assumed): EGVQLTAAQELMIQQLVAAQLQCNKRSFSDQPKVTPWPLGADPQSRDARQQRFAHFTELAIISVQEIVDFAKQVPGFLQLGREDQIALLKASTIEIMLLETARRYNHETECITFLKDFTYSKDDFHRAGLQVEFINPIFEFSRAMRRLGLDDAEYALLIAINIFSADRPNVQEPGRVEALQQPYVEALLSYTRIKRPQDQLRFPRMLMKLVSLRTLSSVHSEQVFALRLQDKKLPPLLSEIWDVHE
Description: (§1) Prior to the deuterium incorporation experiments, 10 µM apo LXR was incubated with 10× excess of ligand or equal volume of DMSO for 30 min at room temperature. In the experiments with cofactors, 15× excess of the SRC1 coactivator peptide and the NCOR1 corepressor peptide were added to the ligand-bound or apo proteins, respectively, and incubated for 30 min at room temperature. […] A fully deuterated sample was generated by incubating protein with 4 M guanidine-HCl in D2O for 30 min at 45 °C. Exchange reactions were performed with a CTC PAL sample handling robot (LEAP Technologies). Labeling times were 30, 60, 180, 600, and 1800 s in the kinetics experiments. Differential HDX of a complete compound selection was measured after 30 and 600 s of labeling time points. Reactions were conducted by incubating 4 µl of LXR with 50 µl of D2O buffer (containing 25 mM Tris-HCl (pD 7.6), 50 mM NaCl, 10% glycerol, and 1 mM TCEP). The exchange reaction was stopped by the addition of 50 µl of quench solution (3 M urea, 0.1% TFA) followed by immediate injection into a Enzymate BEH Pepsin 2.1 × 30 mm Column (Waters, UK) for protein digestion (2 min at 24 °C). Peptic digest was further injected on a Waters nanoACQUITY UPLC System where peptides were first desalted by trapping for 3 min on a VanGuard Pre-Column Acquity UPLC BEH C18 (1.7 μm; 2.1 × 5 mm), and then eluted over a 6-min 5–40% (vol/vol) acetonitrile (containing 0.1% formic acid) gradient into a Waters Synapt G2-Si mass spectrometer. Peptide separation was conducted at 0.1 °C. All exchange reactions were performed in triplicates.
(§2) Peptides from three samples of non-deuterated LXR were identified by using the ProteinLynx Global Server (PLGS Waters, UK). Peptides with an intensity of over 5000, a mass error < 5 ppm, and present in at least two of the three data acquisitions were pooled and imported into the DynamX data analysis software (Waters, UK). After a first round of automated spectral processing by using DynamX, each peptide was inspected manually for suitability for further analysis.
(§3) For pairwise comparison, MEMHDX software was used to identify statistically significant changes of deuterium uptake. For all peptides, a value of relative exchange per amino acid was corrected to back exchange. The mean deuteration level per amino acid was calculated by using Matlab (Mathworks)[69] and subsequently mapped onto the crystal structures with PyMOL (Schrodinger LLC). For structural representation, loop modeling with MOE (Chemical Computing Group Inc.) was applied on 2ACL.pdb file for LXRα LBD, and 1PQC.pdb for LXRβ LBD.

LXRα LBD [2] = target: T1, LXRα LBD; test: differential HDX-MS of LXRα LBD (apo vs ligand-bound); parameters: Human his-tagged LXRα LBD (200-447); His tag; made in house; host or cells: Escherichia coli BL21(DE3); conditions: for stabilization of LXRα H12: HDX-MS; for protection of LXRα H3 from deuterium exchange: after 600 s of deuterium exchange
Description: as §1, §2, §3

[3] = Receptor-binding affinity pKi LXRα, value (SD, n independent experiments)

Row | SMILES | TG induction in plasma m (scaling factor) (plasma triglycerides) | TG induction in plasma Attributed class (plasma triglycerides) | TG induction in plasma C2, drug concentration corresponding to a twofold increase in TG levels (plasma triglycerides) | Ki (LXRα LBD [1]; [3]) | protection of LXRβ H11–H12 from deuterium exchange (LXRβ LBD) | stabilization of LXRα H12 (LXRα LBD [2]) | protection of LXRα H3 from deuterium exchange (LXRα LBD [2]) | Ki (LXRα LBD [1]; binding affinity to LXRα) | TG class (plasma triglycerides) | trend in plasma TG levels (plasma triglycerides; within the explored concentration range) | Ki (LXRα LBD [1])
1 | CN(C)C(=O)c1cccc(CCCCNC2=C(c3ccccc3)S(=O)(=O)N(C(C)(C)C)C2=O)c1 [AZ1] | 3.88 (30) | Lipogenic | 0.214 (58) μM | 91.2 nM |  |  |  |  |  |  | 
2 | CC(CCCc1cccc(S(N)(=O)=O)n1)NC1=C(c2ccccc2)S(=O)(=O)N(C(C)C)C1=O (centres unmarked) [AZ2] | 9.28 (63) |  | 0.041 (120) μM | 91.2 nM |  |  |  |  |  |  | 
3 | CC(C)N1C(=O)C(NCCCCc2cccc(S(N)(=O)=O)n2)=C(c2ccccc2)S1(=O)=O [AZ3] | 0.897 (20) |  | 3.42 (38) μM | 501 nM | 17-25% |  |  |  |  |  | 
4 | CC(C)(C)N1C(=O)C(NC2CCN(c3ncc(CC(=O)O)cc3Cl)CC2)=C(c2ccccc2)S1(=O)=O [AZ4] | 1.47 (28) |  | 1.35 (54) μM | 355 nM |  |  |  |  |  |  | 
5 | CN(C)C(=O)c1cnc(N2CC[C@@H](CNC3=C(c4ccccc4)S(=O)(=O)N(C(C)(C)C)C3=O)C2)c(Cl)c1 [AZ5] |  |  |  | 2140 nM |  | did not stabilize LXRα H12 | no effect |  |  |  | 
6 | CC(C)N1C(=O)C(NC2CCN(c3ncc(CC(=O)O)cc3Cl)CC2)=C(c2ccccc2)S1(=O)=O [AZ6] |  | Non-lipogenic |  | 1580 nM | 17-25% |  |  |  |  |  | 
7 | CC(C)(C)N1C(=O)C(Cc2ccccc2)=C(NC2CCN(c3ncc(CC(=O)O)cc3Cl)CC2)C1=O [AZ7] |  | Non-lipogenic |  | 1070 nM |  |  |  | 1000 nM |  |  | 
8 | O=C1C(Cc2ccccc2)=C(NCCCCc2ccccc2)C(=O)N1Cc1ccccc1 [AZ8] |  | Non-lipogenic |  | 195 nM | 17-25% |  | no effect |  |  |  | 
9 | CC(C)(O)c1cn(-c2ccc(-c3cc(F)c(CO)c(S(C)(=O)=O)c3)cc2F)c(C(C)(C)c2c(Cl)cccc2Cl)n1 [BMS-852927] | 0.066 (18) | Non-lipogenic | 477 μM and 477 (35) μM |  |  | did not stabilize LXRα H12 | 60% |  | non-lipogenic |  | 
10 | O=C(O)Cc1ccc(CNC(=O)[C@@H]2Cc3ccccc3N2S(=O)(=O)c2ccc(-c3ccccc3C(F)(F)F)cc2)cc1 [F1, reference compound] | 12.1 (38) | Lipogenic | 0.025 (72) μM | 10.2 nM |  | did not stabilize LXRα H12 |  | 10 nM |  |  | 
11 | O=C(O)Cc1cccc(OCCCN(Cc2cccc(C(F)(F)F)c2Cl)CC(c2ccccc2)c2ccccc2)c1 [GW3965, reference compound] | 0.244 (18) | Non-lipogenic | 40.2 μM and 40.2 (33) μM | 158 nM |  |  |  |  | non-lipogenic |  | 
12 | Fc1ccc(-c2c3cccc(C(F)(F)F)c3nn2Cc2ccc(F)cc2Cl)cc1 [LXR-623, reference compound] |  | Non-lipogenic |  |  |  |  | no effect |  | non-lipogenic | no trends toward increased TG levels | 490 nM
13 | O=S(=O)(c1ccccc1)N(CC(F)(F)F)c1ccc(C(O)(C(F)(F)F)C(F)(F)F)cc1 [T0901317, reference compound] | 0.784 (17) | Lipogenic | 4.41 (33) μM |  | 17-25% |  |  |  |  |  | 
